Results published in PubChem BioAssay AID330 (DTP/NCI, 2004).
Several values for one entry are separate records, joined by “and”; a condition that tells them apart may be missing. Identical values can stand only once. Inconclusive results and toxic doses are left out.

Tested on: P388 leukemia ip, CD2F1 mice, survival T/C
Experiment: NCI In Vivo Anticancer Drug Screen. Data for tumor model P388 Leukemia (intraperitoneal) in CD2F1 (CDF1) mice
Details: endpoint: median survival time, higher = longer survival
Outline: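 Mice carrying the transplanted tumor received test compound or vehicle. Survival was recorded in each group, and the value is the treated-group measurement divided by that of the vehicle-treated control group.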

[1] = dose: 100.0 mg/kg/injection, schedule: Q04DX003 (ip), vehicle: saline with Tween-80
[2] = dose: 200.0 mg/kg/injection, schedule: Q04DX003 (ip), vehicle: saline with Tween-80
[3] = dose: 400.0 mg/kg/injection, schedule: Q04DX003 (ip), vehicle: saline with Tween-80
[4] = dose: 100.0 mg/kg/injection, schedule: Q01DX009 (ip), vehicle: saline with Tween-80
[5] = dose: 200.0 mg/kg/injection, schedule: Q01DX009 (ip), vehicle: saline with Tween-80
[6] = dose: 400.0 mg/kg/injection, schedule: Q01DX009 (ip), vehicle: saline with Tween-80
[7] = dose: 100.0 mg/kg/injection, schedule: Q04DX003 (ip), vehicle: Klucel (hydroxypropylcellulose) (HPC)
[8] = dose: 50.0 mg/kg/injection, schedule: Q01DX009 (ip), vehicle: saline
[9] = dose: 50.0 mg/kg/injection, schedule: Q01DX005 (ip), vehicle: saline with Tween-80
[10] = dose: 100.0 mg/kg/injection, schedule: Q01DX005 (ip), vehicle: saline with Tween-80
[11] = dose: 200.0 mg/kg/injection, schedule: Q01DX005 (ip), vehicle: saline with Tween-80
[12] = dose: 60.0 mg/kg/injection, schedule: Q01DX005 (ip), vehicle: saline with Tween-80
[13] = dose: 120.0 mg/kg/injection, schedule: Q01DX005 (ip), vehicle: saline with Tween-80
[14] = dose: 240.0 mg/kg/injection, schedule: Q01DX005 (ip), vehicle: saline with Tween-80
[15] = dose: 25.0 mg/kg/injection, schedule: Q01DX009 (ip), vehicle: Klucel (hydroxypropylcellulose) (HPC)
[16] = dose: 50.0 mg/kg/injection, schedule: Q01DX009 (ip), vehicle: Klucel (hydroxypropylcellulose) (HPC)
[17] = dose: 100.0 mg/kg/injection, schedule: Q01DX009 (ip), vehicle: Klucel (hydroxypropylcellulose) (HPC)
[18] = dose: 200.0 mg/kg/injection, schedule: Q01DX009 (ip), vehicle: Klucel (hydroxypropylcellulose) (HPC)

N#Cc1ccc(C(=O)C=C(C(F)(F)F)C(F)(F)F)cc1
T/C (dose: 3.13 mg/kg/injection, schedule: Q01DX009 (ip), vehicle: other): 115 % of control | T/C (dose: 5.56 mg/kg/injection, schedule: Q01DX009 (ip), vehicle: other): 120 % of control

CC(=O)OCc1c(-c2ccccc2)nc2n1CCS2
T/C (dose: 12.5 mg/kg/injection, schedule: Q01DX001 (ip), vehicle: Klucel (hydroxypropylcellulose) (HPC)): 101 % of control and 95 % of control | T/C (dose: 25.0 mg/kg/injection, schedule: Q01DX001 (ip), vehicle: Klucel (hydroxypropylcellulose) (HPC)): 114 % of control and 106 % of control | T/C (dose: 50.0 mg/kg/injection, schedule: Q01DX001 (ip), vehicle: Klucel (hydroxypropylcellulose) (HPC)): 108 % of control and 107 % of control | T/C (dose: 100.0 mg/kg/injection, schedule: Q01DX001 (ip), vehicle: Klucel (hydroxypropylcellulose) (HPC)): 86 % of control

CN1CCc2c1cc(-c1ccncc1)c1c2N(C)CC1
T/C (dose: 50.0 mg/kg/injection, schedule: Q01DX005 (ip), vehicle: Klucel (hydroxypropylcellulose) (HPC)): 106 % of control | T/C (dose: 100.0 mg/kg/injection, schedule: Q01DX005 (ip), vehicle: Klucel (hydroxypropylcellulose) (HPC)): 107 % of control | T/C (dose: 200.0 mg/kg/injection, schedule: Q01DX005 (ip), vehicle: Klucel (hydroxypropylcellulose) (HPC)): 107 % of control

CN1C(=O)C2SC(=NNc3ccccc3)SC1C(=O)N2C
T/C [1]: 106 % of control | T/C [2]: 120 % of control | T/C [3]: 100 % of control

O=C1c2ccccc2C(=O)c2c(NCCN3CCOCC3)ccc(NCCN3CCOCC3)c21
T/C (dose: 50.0 mg/kg/injection, schedule: Q01DX009 (ip), vehicle: saline with Tween-80): 108 % of control | T/C [4]: 109 % of control | T/C [5]: 115 % of control | T/C [6]: 117 % of control

O=C1C2=C(Nc3cc(Cl)ccc3N2)OC1c1ccc2c(c1)OCO2 (centres undefined)
T/C (dose: 60.0 mg/kg/injection, schedule: Q01DX005 (ip), vehicle: Klucel (hydroxypropylcellulose) (HPC)): 101 % of control | T/C (dose: 120.0 mg/kg/injection, schedule: Q01DX005 (ip), vehicle: Klucel (hydroxypropylcellulose) (HPC)): 98 % of control | T/C (dose: 240.0 mg/kg/injection, schedule: Q01DX005 (ip), vehicle: Klucel (hydroxypropylcellulose) (HPC)): 101 % of control

CC(=O)Oc1c2ccsc2cc2sccc12
T/C (dose: 12.5 mg/kg/injection, schedule: Q04DX003 (ip), vehicle: Klucel (hydroxypropylcellulose) (HPC)): 95 % of control | T/C (dose: 25.0 mg/kg/injection, schedule: Q04DX003 (ip), vehicle: Klucel (hydroxypropylcellulose) (HPC)): 94 % of control | T/C (dose: 50.0 mg/kg/injection, schedule: Q04DX003 (ip), vehicle: Klucel (hydroxypropylcellulose) (HPC)): 94 % of control | T/C [7]: 100 % of control

C=CCSc1nc2ccc(NCn3c(=S)sc4cc([N+](=O)[O-])ccc43)cc2s1
T/C [7]: 90 % of control | T/C (dose: 200.0 mg/kg/injection, schedule: Q04DX003 (ip), vehicle: Klucel (hydroxypropylcellulose) (HPC)): 86 % of control

N#Cc1cn(C2OC(CO)C(O)C2O)c2ncnc(N)c12 (centres undefined)
T/C (dose: 0.05 mg/kg/injection, schedule: Q01DX009 (ip), vehicle: other): 124 % of control | T/C (dose: 0.1 mg/kg/injection, schedule: Q01DX009 (ip), vehicle: other): 155 % of control | T/C (dose: 0.13 mg/kg/injection, schedule: Q04DX003 (ip), vehicle: other): 154 % of control | T/C (dose: 0.15 mg/kg/injection, schedule: Q04DX003 (ip), vehicle: other): 163 % of control | T/C (dose: 0.2 mg/kg/injection, schedule: Q01DX009 (ip), vehicle: other): 120 % of control | T/C (dose: 0.2 mg/kg/injection, schedule: Q04DX003 (ip), vehicle: other): 150 % of control | T/C (dose: 0.4 mg/kg/injection, schedule: Q01DX009 (ip), vehicle: other): 95 % of control | T/C (dose: 1.0 mg/kg/injection, schedule: Q04DX003 (ip), vehicle: saline with Tween-80): 165 % of control | T/C (dose: 2.0 mg/kg/injection, schedule: Q04DX003 (ip), vehicle: saline with Tween-80): 150 % of control | T/C (dose: 4.0 mg/kg/injection, schedule: Q04DX003 (ip), vehicle: saline with Tween-80): 95 % of control | T/C (dose: 29.6 micrograms/kg/injection, schedule: Q04DX003 (ip), vehicle: other): 110 % of control | T/C (dose: 44.0 micrograms/kg/injection, schedule: Q04DX003 (ip), vehicle: other): 120 % of control | T/C (dose: 66.0 micrograms/kg/injection, schedule: Q04DX003 (ip), vehicle: other): 153 % of control

N#Cc1ncc(C(Cl)Cl)nc1Cl
T/C (dose: 25.0 mg/kg/injection, schedule: Q01DX009 (ip), vehicle: saline): 108 % of control | T/C [8]: 106 % of control

O=C1c2cccc3cccc(c23)C(=O)N1CCO
T/C [9]: 104 % of control | T/C [10]: 96 % of control | T/C [11]: 100 % of control

Cc1c(COC(=O)NC(C)C)c(COC(=O)NC(C)C)c2n1CSC2
T/C (dose: 6.25 mg/kg/injection, schedule: Q01DX005 (ip), vehicle: Klucel + Tween-80): 154 % of control | T/C (dose: 25.0 mg/kg/injection, schedule: Q01DX005 (ip), vehicle: Klucel + Tween-80): 169 % of control and 173 % of control

Cc1cc(C(=O)CSC(=S)SC(C)(C)C)ccc1Cl
T/C [12]: 100 % of control | T/C [13]: 96 % of control | T/C [14]: 90 % of control

Cc1ccc(C(=O)NN2C(N)=NC(N)=NC2(C)C)cc1
T/C (dose: 50.0 mg/kg/injection, schedule: Q04DX003 (ip), vehicle: saline): 100 % of control | T/C (dose: 100.0 mg/kg/injection, schedule: Q04DX003 (ip), vehicle: saline): 105 % of control

O=C1Nc2ccccc2C12Nc1ccccc1S2 (centres undefined)
T/C [9]: 100 % of control | T/C [10]: 101 % of control | T/C [11]: 110 % of control

CSc1nc(-c2ccccc2)cc(=O)[nH]1
T/C [15]: 106 % of control | T/C [16]: 118 % of control | T/C [8]: 102 % of control | T/C [17]: 112 % of control | T/C (dose: 100.0 mg/kg/injection, schedule: Q01DX009 (ip), vehicle: saline): 108 % of control | T/C [18]: 94 % of control | T/C (dose: 200.0 mg/kg/injection, schedule: Q01DX009 (ip), vehicle: saline): 102 % of control

Cc1cc(=O)[nH]c(N/N=C/c2ccccc2O)n1
T/C [4]: 90 % of control | T/C [1]: 90 % of control | T/C [5]: 90 % of control | T/C [2]: 90 % of control | T/C [6]: 90 % of control | T/C [3]: 100 % of control

CC[Si](C#CCOc1ccccc1C1OCCO1)(CC)CC
T/C [12]: 105 % of control | T/C [13]: 101 % of control | T/C [14]: 99 % of control

COC(CNCC(OC)OC)OC
T/C (dose: 3.13 mg/kg/injection, schedule: Q01DX009 (ip), vehicle: water): 96 % of control | T/C (dose: 6.25 mg/kg/injection, schedule: Q01DX009 (ip), vehicle: water): 102 % of control | T/C (dose: 12.5 mg/kg/injection, schedule: Q01DX009 (ip), vehicle: water): 95 % of control | T/C (dose: 25.0 mg/kg/injection, schedule: Q01DX009 (ip), vehicle: water): 102 % of control | T/C (dose: 50.0 mg/kg/injection, schedule: Q01DX009 (ip), vehicle: water): 93 % of control | T/C (dose: 100.0 mg/kg/injection, schedule: Q01DX009 (ip), vehicle: water): 104 % of control

N=C(/C(=C/c1cccc2ccccc12)c1ccccc1)c1ccccc1
T/C [16]: 98 % of control | T/C [17]: 104 % of control | T/C [18]: 108 % of control

COc1ccc(C(CC(=O)c2ccccc2)[Se]c2ccccc2)cc1 (centres undefined)
T/C [15]: 105 % of control | T/C [16]: 106 % of control | T/C [17]: 105 % of control

O=C1NC(=O)C2(OC3c4ccccc4C=NN3C3=C2C(=O)CC3)C(=O)N1 (centres undefined)
T/C (dose: 100.0 mg/kg/injection, schedule: Q01DX001 (ip), vehicle: saline with Tween-80): 101 % of control | T/C (dose: 200.0 mg/kg/injection, schedule: Q01DX001 (ip), vehicle: saline with Tween-80): 100 % of control | T/C (dose: 400.0 mg/kg/injection, schedule: Q01DX001 (ip), vehicle: saline with Tween-80): 104 % of control
